From paper PMC3544079 (MedChemComm, 2011)
pKi: −log10 of the molar value.

Columns and labels:
Type in all cases: biochemical
E. coli DXP synthase = E. coli DXP synthase (Escherichia coli, UniProt P77488); test: E. coli DXP synthase inhibition, spectrophotometric coupled assay; conditions: with respect to pyruvate
[1] = biological target: T1, S. cerevisiae transketolase (Saccharomyces cerevisiae, UniProt P23254); test: Inhibition of S. cerevisiae transketolase
T1 sequence (P23254 1-680): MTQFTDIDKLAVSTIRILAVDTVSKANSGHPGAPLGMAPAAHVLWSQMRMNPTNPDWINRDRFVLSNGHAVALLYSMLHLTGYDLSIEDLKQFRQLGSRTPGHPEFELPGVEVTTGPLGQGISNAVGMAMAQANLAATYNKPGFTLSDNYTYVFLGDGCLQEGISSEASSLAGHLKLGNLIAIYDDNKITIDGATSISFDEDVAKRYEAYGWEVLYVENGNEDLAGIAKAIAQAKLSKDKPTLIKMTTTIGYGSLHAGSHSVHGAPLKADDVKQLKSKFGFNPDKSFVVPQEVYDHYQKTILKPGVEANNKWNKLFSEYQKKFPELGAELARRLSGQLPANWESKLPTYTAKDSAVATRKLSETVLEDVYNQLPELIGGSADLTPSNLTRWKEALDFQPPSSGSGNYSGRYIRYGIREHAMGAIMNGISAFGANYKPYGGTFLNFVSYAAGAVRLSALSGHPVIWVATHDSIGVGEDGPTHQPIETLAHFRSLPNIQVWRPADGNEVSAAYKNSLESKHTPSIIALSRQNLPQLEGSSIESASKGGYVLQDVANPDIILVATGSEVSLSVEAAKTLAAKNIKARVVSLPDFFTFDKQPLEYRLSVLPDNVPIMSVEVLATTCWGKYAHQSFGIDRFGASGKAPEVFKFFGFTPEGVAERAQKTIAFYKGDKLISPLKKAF

[2] = biological target: T2, Porcine pyruvate dehydrogenase E1 subunit (Sus scrofa, UniProt P29804); test: Inhibition of porcine pyruvate dehydrogenase E1 subunit; conditions: pyruvate varied, 0-1.0 mM BAP
T2 sequence (P29804 30-390 limits assumed): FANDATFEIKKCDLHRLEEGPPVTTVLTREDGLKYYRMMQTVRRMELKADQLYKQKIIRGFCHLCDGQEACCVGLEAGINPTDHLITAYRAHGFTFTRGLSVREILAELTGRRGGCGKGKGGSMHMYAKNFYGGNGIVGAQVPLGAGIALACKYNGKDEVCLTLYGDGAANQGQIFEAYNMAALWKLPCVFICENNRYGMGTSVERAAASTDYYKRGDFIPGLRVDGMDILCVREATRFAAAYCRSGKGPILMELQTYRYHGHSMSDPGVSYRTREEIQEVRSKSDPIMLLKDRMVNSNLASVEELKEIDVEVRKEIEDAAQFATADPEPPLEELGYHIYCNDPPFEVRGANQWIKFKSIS

E. coli DXP synthase, sequence (P77488 whole entry): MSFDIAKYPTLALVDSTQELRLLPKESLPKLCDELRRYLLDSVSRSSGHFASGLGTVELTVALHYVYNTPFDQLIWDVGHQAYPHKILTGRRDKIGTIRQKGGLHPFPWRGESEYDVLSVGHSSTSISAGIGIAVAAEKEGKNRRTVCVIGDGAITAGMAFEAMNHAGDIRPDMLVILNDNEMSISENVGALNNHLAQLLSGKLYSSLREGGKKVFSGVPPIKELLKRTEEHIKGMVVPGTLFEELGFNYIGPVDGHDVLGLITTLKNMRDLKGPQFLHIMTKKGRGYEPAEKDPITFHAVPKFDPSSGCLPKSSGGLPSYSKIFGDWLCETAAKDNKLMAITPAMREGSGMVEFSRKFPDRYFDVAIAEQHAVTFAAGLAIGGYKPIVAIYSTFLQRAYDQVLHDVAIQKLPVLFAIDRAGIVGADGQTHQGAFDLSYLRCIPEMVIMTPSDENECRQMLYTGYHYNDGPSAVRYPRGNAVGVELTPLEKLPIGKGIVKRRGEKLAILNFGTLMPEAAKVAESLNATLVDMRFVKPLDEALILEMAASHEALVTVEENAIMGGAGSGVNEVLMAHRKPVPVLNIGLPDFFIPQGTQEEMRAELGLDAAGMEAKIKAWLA

SMILES: COP(=O)([O-])C(C)=O.[Li+] [Compound 1, Methylacetylphosphonate, reference compound]
- mode of inhibition (E. coli DXP synthase): competitive inhibitor against pyruvate
- pKi [1]: < 3.00

SMILES: CCOP(=O)([O-])C(C)=O.[Li+] [Compound 2, Ethylacetylphosphonate]
- mode of inhibition (E. coli DXP synthase): competitive mode of inhibition
- pKi [1]: < 3.00

SMILES: CCCCOP(=O)([O-])C(C)=O.[Li+] [Compound 3, butylacetylphosphonate]
- mode of inhibition [2]: Competitive inhibition
- mode of inhibition (E. coli DXP synthase; listed as BAP): competitive mode of inhibition
- pKi [1]: < 3.00

SMILES: CCC(=O)P(=O)(O)OC [Compound 4]
- pKi [1]: < 3.00

SMILES: CCCC(=O)P(=O)(O)OC [Compound 5]
- pKi [1]: < 3.00

SMILES: CCCCC(=O)P(=O)(O)OC [Compound 6]
- pKi [1]: < 3.00
